Read-outs that look alike come from different tables or passages of the source.
Experiments:
[1] = Oxygen singlet production by Singlet Oxygen Sensor Green assay; settings: compound 25 μM, after white light irradiation 79.2 J cm^−2
Protocol: The production of singlet oxygen by the different amino-based compounds in solution was determined as follows: a stock solution of Singlet Oxygen Sensor Green was prepared at 5 mM in methanol (MeOH). Working solutions of the probe were prepared at 2 mM in 100 mM pH 7.5 Tris buffer and in 100 mM pH 7.5 Tris buffer with 10 mM of Sodium Azide. The compounds were then prepared at a stock concentration of 500 μM and the working solutions were prepared in 100 mM pH 7.5 Tris buffer and in 100 mM pH 7.5 Tris buffer with 10 mM of Sodium Azide. 1 μL of Singlet Oxygen Sensor Green working solutions and 100 μL of compounds solution were mixed to a final volume of 1000 μL (in 100 mM pH 7.5 Tris buffer or in 100 mM pH 7.5 Tris buffer with 10 mM of Sodium Azide). 100 μL of each solution was then added to a 96-well black plate and 100 μL of Deuterium Oxide was added for a final concentration of 1 μM Singlet Oxygen Sensor Green and 25 μM for the different amino-based compounds. The fluorescence was then registered in a spectrofluorometer using excitation/emission of 488/525 nm. After this procedure, the wells were irradiated with a white light source with a total of 79.2 J cm^−2, corresponding to a total irradiation time of 1 h (6 pulses of 10 min) and then, the fluorescence determined using the same excitation/emission pair. As a positive control, Methylene Blue was used at a final concentration of 10 μM. The oxygen singlet production methodology was performed in a dark room.

HaCaT cells [2] = assay: Cellular photoactivation assay (white light or dark, Alamar Blue); type: cell-based, human; settings: for Dark cytotoxicity to HaCaT cells (in words) / Photoactivation, dark versus white light (in words) / IC50: 4 h incubation; for Dark cytotoxicity to HaCaT cells (in words) / Photoactivation, dark versus white light (in words): 6.25–100 μM applied; for Photoactivation, dark versus white light (in words): white light 6.6 J cm^−2; for IC50: Homo sapiens, HaCaT, concentrations corrected for uptake
Protocol: A white light LED homemade device prototype has 96 LEDs appropriately arranged on a plate of 13 cm length × 8 cm width, with a distance from the microplate surface of 8 cm. The prototype has an irradiance of 21 W m^−2 and a wavelength range of 408–707 nm (Fig. S4).
For the cellular photoactivation assays, the white light source of 21 W m^−2 was used. Briefly, cells were seed at a density of 4 × 10^4 cells/mL onto 96 –well plates and after 24 h the compounds were added to the plates in different concentrations (6.25–100 μM) and incubated for a period of 4 h at 37 °C in an atmosphere of 5% CO2 and in the presence of DMEM with 2% FBS. After this period, the medium with the compounds was removed and fresh medium (DMEM with 2% FBS without phenol red (DMEM_2% FBS_w/o_PR) was added to cells. Following this procedure, cells were submitted to light irradiation, the selected light source at a height of 8 cm, in a chamber designed to ensure the same light quantity for each well during the treatment. Cells were irradiated for 10 min at an intensity of 50%, at room temperature (making a total energy exposition of 6.6 J cm^−2). The dark treatment was prepared by placing the plates for 10 min in a dark box at room temperature. After this, the 96 well plates were placed in an incubator at 37 °C in an atmosphere of 5% CO2 for 24 h. Then, to determine cell survival the Alamar Blue assay was performed as follows: after the 24 h, 20 μL of a solution of Resazurin (0.15 mg mL^−1 in PBS filtered in 0.22 μm filters) were added to each well (making a total volume of 120 μL per well), and the plates were incubated between 4–6 h (until the development of visible color change from violet to pink). The fluorescence intensity of each well was then determined at 560/590 nm (ex/em) (FlexStation 3 Multi-Mode Microplate Reader).

[3] = Maximum absorption wavelength of the flavylium cation; type: physicochemical; settings: species adsorbed/absorbed in cells
HaCaT cells [4] = assay: Photodynamic therapy mechanism determination with type I/type II quenchers; type: cell-based, human; settings: compound 50 μΜ, light 6.6 J cm^−2
Protocol: For the determination of the photoactivation mechanism that yielded to cell death, cells were seeded as previously described for the photoactivation assays. […] The incubation proceeded for a time period of 4 h. After this, solutions containing the compounds were removed from cells and fresh medium containing the different quenchers were added to cells. Cells were irradiated for 10 min at an intensity of 50%, at room temperature (making a total energy exposition of 6.6 J cm^−2). The dark treatment was done by placing the plates for 10 min in a dark box at room temperature. After this, the medium was removed and replaced by fresh medium without any additive. The 96 well plates were then placed in an incubator at 37 °C in an atmosphere of 5% CO2 for 24 h. Finally, the Alamar Blue assay was performed to determine cell survival as previously described.

[5] = Molar absorption coefficient (ɛ) at 630 nm; type: physicochemical
Protocol: The molar extinction coefficient or molar absorption (ɛ), of all synthesized pigments was determined in three different solvents (ethanol, methanol and DMSO). For each pigment, in each solvent, a range of concentrations was prepared and then the spectrum of each solution was read. Finally, the respective absorbances (collected at 630 nm) were represented as a function of concentration and the ɛ value was taken from the slope value of the equation curve.

HaCaT cells [6] = assay: Reactive oxygen species production (DCF-DA); type: cell-based, human; settings: 25 μM, 6.6 J cm^−2, versus control cells
Protocol: Cells reactive oxygen species (ROS) production was evaluated following the standard method. Briefly, cells were seed at a density of 4 × 10^4 cells/mL onto 96 well plates and after 24 h the compounds were added at 25 μM (non-toxic concentration) and the same previous procedure for the photoactivation assays was followed. After that, cells were washed twice in Hank’s Buffered Saline Solution (HBSS) and incubated with 100 μL of 50 μM 2′,7′-dichlorodihydrofluorescein diacetate (DCF‐DA) for 30 min in the same previous conditions. For positive control, cells were treated with 100 μM H2O2 for 30 min prior to the addition of DCF-DA. Cells were then washed twice with HBSS and incubated with fresh DMEM medium for 24 h. After this period, the fluorescence intensity at […] (ex/em) was determined in a FlexStation 3 Multi-Mode Microplate Reader.

[7] = 4 h, kept in the dark, read-out: IC50 of HaCaT cell survival, DARK
[8] = white light 6.6 J cm^−2 (10 min), read-out: IC50 of HaCaT cell survival, LIGHT

SMILES	^1O2 production [1]	Dark cytotoxicity to HaCaT cells (in words) (HaCaT cells [2])	Photoactivation, dark versus white light (in words) (HaCaT cells [2])	IC50 (HaCaT cells [2]; [7])	IC50 (HaCaT cells [2]; [8])	Maximum absorption wavelength of the flavylium cation [3]	Increase of cell survival with quencher (HaCaT cells [4]; D-mannitol 10 mM (type I))	Increase of cell survival with quencher (HaCaT cells [4]; L-cysteine 10 mM (type I))	Increase of cell survival with quencher (HaCaT cells [4]; L-histidine 10 mM (type II))	Increase of cell survival with quencher (HaCaT cells [4]; sodium azide 10 mM (type II))	Molar absorption coefficient ɛ at 630 nm ([5]; DMSO)	Molar absorption coefficient ɛ at 630 nm ([5]; Ethanol)	Molar absorption coefficient ɛ at 630 nm ([5]; Methanol)	ROS production upon white light irradiation (in words) (HaCaT cells [6])	Cell survival, minimum (HaCaT cells [2]; white light irradiation, highest concentration applied)
CCN(CC)c1ccc2ccc(/C=C/c3ccc(N(C)C)cc3)[o+]c2c1 [7NEt2st4′NMe2, 7-(diethylamino)-2-(4′-dimethylaminostyryl)-benzopyrylium]	181.2 ± 22.23%	significant dark cytotoxicity	significant photoactivation was found for the last four concentrations	5.11 ± 0.196 µM	1.08 ± 0.13 µM	672 nm	22%	16%	46%	31%	15,728 M^−1 cm^−1	16,281 M^−1 cm^−1	22,749 M^−1 cm^−1	positive modulation of ROS production	
CCN(CC)c1ccc2ccc(-c3ccc(N)cc3)[o+]c2c1 [7NEt24′NH2, 4′-amino-7-diethylamino-benzopyrylium]	173.1 ± 15.73%	significant decrease of cell survival	potential photo-activation	3 ± 0.734 µM	1.53 ± 0.081 µM	575 nm	14%	27%	33%	31%	5687 M⁻¹ cm⁻¹	2225 M⁻¹ cm⁻¹	1682 M⁻¹ cm⁻¹	positive modulation of ROS production	
CCN(CC)c1ccc2ccc(-c3ccc(N(C)C)cc3)[o+]c2c1 [7NEt24′NMe2, 7-diethylamino-4′-dimethylamino-benzopyrylium]	131.2 ± 3.90%	absence of dark cytotoxicity	photoactivation even for low concentrations		0.905 ± 0.231 µM	596 nm	6%	13%	44%	27%	11,031 M^−1 cm^−1	10,725 M^−1 cm^−1	8,720 M^−1 cm^−1	positive modulation of ROS production	38%
C=CC1=C(C)c2cc3[nH]c(cc4nc(cc5[nH]c(cc1n2)c(C)c5CCC(=O)O)C(CCC(=O)O)=C4C)c(C)c3C=C [PpIX, protoporphyrin IX, reference compound]	263.3 ± 12.28%	no cytotoxic effects in dark conditions	effective photoactivation from the three higher concentrations		0.3 µM		27%	26%	42%	37%	3207 M⁻¹ cm⁻¹			no significant differences	
